≈ marks a conversion by molar mass, not a printed value.
Key:
[1] = test system: Pisum sativum; test: Phytotoxicity in Pisum sativum (pea) assessed as plant fresh weight at 2 kg ai/ha applied to soil measured up to 7 days post planting at 27 degC under green house conditions (reference value: 3.9 +/- 0.83 g); assay type: organism-based; conditions: lathyrus oleraceus, in vivo, other, 168 h
[2] = test system: Meloidogyne incognita; test: Nematicidal activity against second juvenile stage of Meloidogyne incognita (root-knot nematode) infected pea plant assessed as root fresh weight at 4 kg ai/ha applied to soil measured up to 14 days post planting under green house conditions (reference value: 4.3 +/- 0.56 g); assay type: functional
[3] = test system: Phaseolus lunatus; test: Phytotoxicity in Phaseolus lunatus (lima bean) plant assessed as plant dry weight at 2.12 kg ai/ha applied to soil measured up to 7 days under green house conditions (reference value: 1.20 +/- 0.21 g); assay type: organism-based; conditions: in vivo, other, 168 h
[4] = test system: Meloidogyne incognita; test: Nematicidal activity against second juvenile stage of Meloidogyne incognita (root-knot nematode) infected lima bean plant assessed as root dry weight at 1 kg ai/ha applied to soil measured during planting under green house conditions (reference value: 0.5 +/- 0.052 g); assay type: functional
[5] = test system: Meloidogyne incognita; test: Nematicidal activity against second juvenile stage of Meloidogyne incognita (root-knot nematode) assessed as mortality after 48 hr; assay type: functional
[6] = test system: Trichoplusia ni; test: Insecticidal activity against Trichoplusia ni (cabbage looper) infested cabbage assessed as mortality applied through foliar spray after 72 hr; assay type: functional
[7] = test system: Meloidogyne incognita; test: Nematicidal activity against second juvenile stage of Meloidogyne incognita (root-knot nematode) infected pea plant assessed as root dry weight at 4 kg ai/ha applied to soil measured up to 7 days post planting under green house conditions (reference value: 0.25 +/- 0.041 g); assay type: functional
[8] = test system: Meloidogyne incognita; test: Nematicidal activity against second juvenile stage of Meloidogyne incognita (root-knot nematode) infected lima bean plant assessed as emergence at 1 kg ai/ha applied to soil measured during planting under green house conditions (reference value: 83 +/- 5%); assay type: functional
[9] = test system: Meloidogyne incognita; test: Nematicidal activity against second juvenile stage of Meloidogyne incognita (root-knot nematode) infected pea plant assessed as plant fresh weight at 2 kg ai/ha applied to soil measured up to 7 days post planting under green house conditions (reference value: 4.3 +/- 0.56 g); assay type: functional
[10] = test system: Aphis gossypii; test: Insecticidal activity against Aphis gossypii (cotton aphid) infested cotton assessed as mortality applied to soil after 5 days; assay type: functional
[11] = test system: Phaseolus lunatus; test: Phytotoxicity in Phaseolus lunatus (lima bean) root assessed as root dry weight at 1.12 kg ai/ha applied to soil under green house conditions (reference value: 0.36 +/- 0.071 g); assay type: organism-based; conditions: in vivo, other
[12] = test system: Gossypium hirsutum; test: Phytotoxicity in Gossypium hirsutum (cotton) assessed as concentration required to cause foliar edge burn applied to soil after 4 weeks; assay type: organism-based; conditions: in vivo, other, 672 h
[13] = test system: Pisum sativum; test: Phytotoxicity in Pisum sativum (pea) assessed as emergence at 2 kg ai/ha applied to soil measured up to 7 days post planting at 19 degC relative to untreated control; assay type: organism-based; conditions: lathyrus oleraceus, in vivo, other, 168 h
[14] = test system: Phaseolus lunatus; test: Phytotoxicity in Phaseolus lunatus (lima bean) root assessed as root dry weight at 0.56 kg ai/ha applied to soil under green house conditions (reference value: 0.36 +/- 0.071 g); assay type: organism-based; conditions: in vivo, other
[15] = test system: Meloidogyne incognita; test: Nematicidal activity against second juvenile stage of Meloidogyne incognita (root-knot nematode) infected pea plant assessed as emergence at 2 kg ai/ha applied to soil measured up to 7 days post planting under green house conditions (reference value: 75 +/- 13%); assay type: functional
[16] = test system: Phaseolus lunatus; test: Phytotoxicity in Phaseolus lunatus (lima bean) plant assessed as emergence at 1.56 kg ai/ha applied to soil measured up to 7 days under green house conditions (reference value: 70 +/- 16%); assay type: organism-based; conditions: in vivo, other, 168 h
[17] = test system: Phaseolus lunatus; test: Phytotoxicity in Phaseolus lunatus (lima bean) plant assessed as plant dry weight at 2.56 kg ai/ha applied to soil measured up to 14 days under green house conditions (reference value: 1.20 +/- 0.21 g); assay type: organism-based; conditions: in vivo, other, 336 h
[18] = test system: Meloidogyne incognita; test: Nematicidal activity against second juvenile stage of Meloidogyne incognita (root-knot nematode) infected lima bean plant assessed as shoot dry weight at 3 kg ai/ha applied to soil measured up to 7 days post planting under green house conditions (reference value: 1.84 +/- 0.18 g); assay type: functional
[19] = test system: Pisum sativum; test: Phytotoxicity in Pisum sativum (pea) assessed as root dry weight at 4 kg ai/ha applied to soil measured up to 7 days post planting at 27 degC under green house conditions (reference value: 0.33 +/- 0.075 g); assay type: organism-based; conditions: lathyrus oleraceus, in vivo, other, 168 h
[20] = test system: Pisum sativum; test: Phytotoxicity in Pisum sativum (pea) assessed as plant fresh weight at 4 kg ai/ha applied to soil measured up to 7 days post planting at 27 degC under green house conditions (reference value: 3.9 +/- 0.83 g); assay type: organism-based; conditions: lathyrus oleraceus, in vivo, other, 168 h
[21] = test system: Spodoptera exigua; test: Insecticidal activity against Spodoptera exigua infested tomato assessed as mortality applied to soil after 72 hr; assay type: functional
[22] = test system: Trichoplusia ni; test: Insecticidal activity against Trichoplusia ni (cabbage looper) infested cabbage assessed as mortality applied to soil after 72 hr; assay type: functional
[23] = test system: Phaseolus lunatus; test: Phytotoxicity in Phaseolus lunatus (lima bean) plant assessed as emergence at 3.12 kg ai/ha applied to soil measured up to 14 days under green house conditions (reference value: 70 +/- 16%); assay type: organism-based; conditions: in vivo, other, 336 h
[24] = test system: Phaseolus lunatus; test: Phytotoxicity in Phaseolus lunatus (lima bean) root assessed as root dry weight at 2.56 kg ai/ha applied to soil measured up to 14 days under green house conditions (reference value: 0.36 +/- 0.071 g); assay type: organism-based; conditions: in vivo, other, 336 h
[25] = test system: Pisum sativum; test: Phytotoxicity in Pisum sativum (pea) assessed as emergence at 3 kg ai/ha applied to soil measured up to 14 days post planting at 27 degC under green house conditions (reference value: 70 +/- 3.3%); assay type: organism-based; conditions: lathyrus oleraceus, in vivo, other, 336 h
[26] = test system: Meloidogyne incognita; test: Nematicidal activity against second juvenile stage of Meloidogyne incognita (root-knot nematode) infested soil containing cucumber seeds assessed as mortality applied post seed germination measured after 7 days under green house conditions; assay type: functional
[27] = test system: Myzus persicae; test: Insecticidal activity against Myzus persicae (green peach aphid) infested tomato assessed as mortality applied to soil after 5 days; assay type: functional
[28] = test system: Meloidogyne incognita; test: Nematicidal activity against second juvenile stage of Meloidogyne incognita (root-knot nematode) assessed as mortality after 72 hr; assay type: functional
[29] = test system: Bemisia tabaci; test: Insecticidal activity against second-instar […] stage of Bemisia tabaci (sweet potato whitefly) infested cotton assessed as mortality applied to soil after 6 days; assay type: functional
[30] = test system: Meloidogyne incognita; test: Nematicidal activity against second juvenile stage of Meloidogyne incognita (root-knot nematode) infected pea plant assessed as reduction in root gall index at 2 kg ai/ha applied to soil measured up to 7 days post planting under green house conditions (reference value: 9.7 +/- 0.30%); assay type: functional
[31] = test system: Phaseolus lunatus; test: Phytotoxicity in Phaseolus lunatus (lima bean) plant assessed as emergence at 0.56 kg ai/ha under green house conditions applied to soil (reference value: 70 +/- 16%); assay type: organism-based; conditions: in vivo, other
[32] = test system: Phaseolus lunatus; test: Phytotoxicity in Phaseolus lunatus (lima bean) plant assessed as plant dry weight at 0.56 kg ai/ha applied to soil under green house conditions (reference value: 1.20 +/- 0.21 g); assay type: organism-based; conditions: in vivo, other

## CNC(=O)ON=C(C)SC [METHOMYL]
[1]
  Activity: 3 g
[2]
  Activity: 5.5 g
[3]
  Activity: 0.66 g
[4]
  Activity: 0.44 g
[5]
  LC90: 15.2 µg/mL (≈ 93.7 µM)
[5]; Meloidogyne incognita, Juvenile stage, 48 h
  LC50: 4.9 µg/mL (≈ 30.2 µM)
[6]
  LC90: 533 µg/mL (≈ 3290 µM)
[6]; Trichoplusia ni, foliar, 72 h
  LC50: 99 µg/mL (≈ 610 µM)
[7]
  Activity: 0.28 g
[8]
  Activity: 100%
[9]
  Activity: 7.1 g
[10]
  LC90: 11 µg/mL (≈ 67.8 µM)
[10]; Aphis gossypii, soil, 120 h
  LC50: 5 µg/mL (≈ 30.8 µM)
[11]
  Activity: 0.35 g
[12]
  Activity: 100 µg/mL
[13]
  Activity: 93%
[14]
  Activity: 0.35 g
[15]
  Activity: 50%
[16]
  Activity: 80%
[17]
  Activity: 1.25 g
[18]
  Activity: 1.39 g
[19]
  Activity: 0.28 g
[20]
  Activity: 3.1 g
[21]
  LC90: 30 µg/mL (≈ 185 µM)
[21]; Spodoptera exigua, soil, 72 h
  LC50: 18 µg/mL (≈ 111 µM)
[22]
  LC90: 547 µg/mL (≈ 3370 µM)
[22]; Trichoplusia ni, soil, 72 h
  LC50: 100 µg/mL (≈ 616 µM)
[23]
  Activity: 60%
[24]
  Activity: 0.31 g
[25]
  Activity: 80%
[26]
  LC90: 69.7 µg/mL (≈ 430 µM)
[26]; Meloidogyne incognita, Juvenile stage, 168 h
  LC50: 10.2 µg/mL (≈ 62.9 µM)
[27]
  LC90: 11 µg/mL (≈ 67.8 µM)
[27]; Myzus persicae, soil, 120 h
  LC50: 1 µg/mL (≈ 6.16 µM)
[28]
  LC90: 9.8 µg/mL (≈ 60.4 µM)
[28]; Meloidogyne incognita, Juvenile stage, 72 h
  LC50: 3.6 µg/mL (≈ 22.2 µM)
[29]
  LC90: 1119 µg/mL (≈ 6900 µM)
[29]; Bemisia tabaci, soil, 144 h
  LC50: 673 µg/mL (≈ 4150 µM)
[30]
  Root_galling_index: 0%
[31]
  Activity: 80%
[32]
  Activity: 1.2 g
